Target: Tie-2 (Homo sapiens, UniProt Q02763)
Test: Tie-2 tyrosine kinase activity assay (luciferase/luciferin ATP consumption with pEY substrate, or 33P-ATP incorporation)
Format: biochemical
Conditions: human enzyme Tie-2
Outline: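 Values are IC50 categories (A <50 nM to D ≥10,000 nM), with Ki obtainable by fitting rates to a tight-binding model. Assay formats: 33P-ATP phosphate transfer to adsorbed generic substrate counted by scintillation, or luciferase-detected ATP depletion using pEY.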

Chain of Tie-2 (Q02763 23-1124): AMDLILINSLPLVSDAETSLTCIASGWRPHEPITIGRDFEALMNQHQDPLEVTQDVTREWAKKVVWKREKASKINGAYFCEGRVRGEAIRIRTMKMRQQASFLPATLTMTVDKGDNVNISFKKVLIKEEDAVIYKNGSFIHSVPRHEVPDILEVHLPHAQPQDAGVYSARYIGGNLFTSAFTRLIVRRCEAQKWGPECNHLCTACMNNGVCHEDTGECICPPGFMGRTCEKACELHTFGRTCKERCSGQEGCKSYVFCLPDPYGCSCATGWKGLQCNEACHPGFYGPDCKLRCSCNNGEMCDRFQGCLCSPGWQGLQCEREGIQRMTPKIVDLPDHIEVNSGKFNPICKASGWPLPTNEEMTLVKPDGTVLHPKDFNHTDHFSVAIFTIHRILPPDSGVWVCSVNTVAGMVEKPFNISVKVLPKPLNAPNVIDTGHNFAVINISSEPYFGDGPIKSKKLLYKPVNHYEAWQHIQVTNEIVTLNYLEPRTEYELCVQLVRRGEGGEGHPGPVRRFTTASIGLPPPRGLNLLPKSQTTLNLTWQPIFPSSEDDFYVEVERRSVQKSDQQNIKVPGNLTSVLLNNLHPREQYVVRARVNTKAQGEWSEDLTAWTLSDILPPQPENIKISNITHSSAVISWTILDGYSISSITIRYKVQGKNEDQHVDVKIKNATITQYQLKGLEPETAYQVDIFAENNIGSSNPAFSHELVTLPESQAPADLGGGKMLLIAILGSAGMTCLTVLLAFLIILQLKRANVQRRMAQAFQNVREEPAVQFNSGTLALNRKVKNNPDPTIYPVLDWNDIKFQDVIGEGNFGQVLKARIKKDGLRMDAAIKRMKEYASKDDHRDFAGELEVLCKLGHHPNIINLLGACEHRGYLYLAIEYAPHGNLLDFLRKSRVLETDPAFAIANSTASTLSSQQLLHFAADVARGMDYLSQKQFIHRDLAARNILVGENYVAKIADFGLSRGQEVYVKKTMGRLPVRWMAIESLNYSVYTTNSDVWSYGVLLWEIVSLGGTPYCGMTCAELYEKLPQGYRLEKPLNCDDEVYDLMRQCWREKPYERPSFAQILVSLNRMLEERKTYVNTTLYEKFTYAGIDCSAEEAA

| SMILES | IC50 [nM] |
| --- | --- |
| O=C(Nc1cc(C(F)(F)F)cc(C(F)(F)F)c1)N1CCN(c2nsnc2OCc2ccoc2)CC1 [Example 20] | ≥ 10000 |
| Nc1nccc(COc2nccnc2N2CCN(C(=O)Nc3cc(C(F)(F)F)cc(C(F)(F)F)c3)CC2)n1 [Example 135, 4-(3-{[(2-aminopyrimidin-4-yl)methyl]oxy}pyrazin-2-yl)-N-[3,5-bis(trifluoromethyl)phenyl]piperazine-1-carboxamide] | < 50 |
| N#Cc1nc(OCc2ccncc2)c(N2CCN(C(=O)Nc3cccc(C(F)(F)F)c3)CC2)nc1C#N [Example 91, 4-{5,6-dicyano-3-[(pyridin-4-ylmethyl)oxy]pyrazin-2-yl}-N-[3-(trifluoromethyl)phenyl]piperazine-1-carboxamide] | 50 to 1000 |
| C[C@@H]1CN(c2nsnc2OCc2ccncc2)CCN1C(=O)Nc1cc(C(F)(F)F)cc(C(F)(F)F)c1 [Example 52, (2R)-N-[3,5-bis(trifluoromethyl)phenyl]-2-methyl-4-{4-[(pyridin-4-ylmethyl)oxy]-1,2,5-thiadiazol-3-yl}piperazine-1-carboxamide] | 50 to 1000 |
| O=C(Nc1cc(C(F)(F)F)cc(C(F)(F)F)c1)N1CCN(c2nsnc2OCc2ccncc2)CC1 [Example 2] | < 50 |
| O=C(Nc1cc(C(F)(F)F)cc(C(F)(F)F)c1)N1CCN(c2nsnc2OCc2ccnc(Nc3ccccc3)n2)CC1 [Example 118, N-[3,5-bis(trifluoromethyl)phenyl]-4-[4-({[2-(phenylamino)pyrimidin-4-yl]methyl}oxy)-1,2,5-thiadiazol-3-yl]piperazine-1-carboxamide] | < 50 |
| O=C(Nc1cc(C(F)(F)F)cc(C(F)(F)F)c1)NC1CCN(c2nccnc2OCc2ccncc2)C1 (stereo not drawn) [Example 67, N-[3,5-bis(trifluoromethyl)phenyl]-N′-(1-{3-[(pyridin-4-ylmethyl)oxy]pyrazin-2-yl}pyrrolidin-3-yl)urea] | 50 to 1000 |
| O=C(Nc1cc(C(F)(F)F)cc(C(F)(F)F)c1)C1CCN(c2nsnc2OCc2ccncc2)CC1 [Example 36, N-[3,5-bis(trifluoromethyl)phenyl]-1-{4-[(pyridin-4-ylmethyl)oxy]-1,2,5-thiadiazol-3-yl}piperidine-4-carboxamide] | 50 to 1000 |
| O=C(Nc1cccc(C(F)(F)F)c1)N1CCN(c2nsnc2OCc2ccncc2)CC1 [Example 9] | 50 to 1000 |
| CCCNc1cc(COc2nsnc2N2CCNCC2)ccn1 [Example 106, 4-{[(4-piperazin-1-yl-1,2,5-thiadiazol-3-yl)oxy]methyl}-N-propylpyridin-2-amine] | ≥ 10000 |
| NC(=O)c1nccc(COc2nsnc2N2CCN(C(=O)Nc3cc(C(F)(F)F)cc(C(F)(F)F)c3)CC2)n1 [Example 136, 4-[({4-[4-({[3,5-bis(trifluoromethyl)phenyl]amino}carbonyl)piperazin-1-yl]-1,2,5-thiadiazol-3-yl}oxy)methyl]pyrimidine-2-carboxamide] | 50 to 1000 |
| O=C(Nc1cccc(Cl)c1)N1CCN(c2ncccc2OCc2ccncc2)CC1 [Example 105, N-(3-chlorophenyl)-4-{3-[(pyridin-4-ylmethyl)oxy]pyridin-2-yl}piperazine-1-carboxamide] | 50 to 1000 |
| O=C(Nc1nccc(COc2nsnc2N2CCN(C(=O)Nc3cc(C(F)(F)F)cc(C(F)(F)F)c3)CC2)n1)c1ccccc1 [Example 126, N-[3,5-bis(trifluoromethyl)phenyl]-4-{4-[({2-[(phenylcarbonyl)amino]pyrimidin-4-yl}methyl)oxy]-1,2,5-thiadiazol-3-yl}piperazine-1-carboxamide] | 50 to 1000 |
| O=C(Nc1cccc(Br)c1)N1CCN(c2nsnc2OCc2ccncc2)CC1 [Example 5] | 1000 to 10000 |
| CCc1cccc(NC(=O)N2C(C)CN(c3nccnc3OCc3ccncc3)CC2C)c1 (stereo not drawn) [Example 94, N-(3-ethylphenyl)-2,6-dimethyl-4-{3-[(pyridin-4-ylmethyl)oxy]pyrazin-2-yl}piperazine-1-carboxamide] | 50 to 1000 |
| CCCCNc1cc(COc2nsnc2N2CCNCC2)ccn1 [Example 111, N-butyl-4-{[(4-piperazin-1-yl-1,2,5-thiadiazol-3-yl)oxy]methyl}pyridin-2-amine] | ≥ 10000 |
| CC1CN(c2nc3ccccc3nc2OCc2ccncc2)CCN1C(=O)Nc1cc(C(F)(F)F)cc(C(F)(F)F)c1 (stereo not drawn) [Example 74, N-[3,5-bis(trifluoromethyl)phenyl]-2-methyl-4-{3-[(pyridin-4-ylmethyl)oxy]quinoxalin-2-yl}piperazine-1-carboxamide] | 50 to 1000 |
| CC(C)[C@H]1CC[C@H](C)C[C@@H]1OCC(=O)N1CCN(c2nsnc2OCc2ccncc2)CC1 [Example 24] | 1000 to 10000 |
| CC(C)Nc1nccc(COc2nsnc2N2CCN(C(=O)Nc3cc(C(F)(F)F)cc(C(F)(F)F)c3)CC2)n1 [Example 116, N-[3,5-bis(trifluoromethyl)phenyl]-4-{4-[({2-[(1-methylethyl)amino]pyrimidin-4-yl}methyl)oxy]-1,2,5-thiadiazol-3-yl}piperazine-1-carboxamide] | 50 to 1000 |

Continued, values first:

| IC50 [nM] | SMILES |
| --- | --- |
| < 50 | CCc1cccc(NC(=O)N2CCN(c3ncccc3OCc3ccnc(NC(=O)CN4CCN(C)CC4)c3)CC2)c1 [Example 171, N-(3-ethylphenyl)-4-(3-{[(2-{[(4-methylpiperazin-1-yl)acetyl]amino}pyridin-4-yl)methyl]oxy}pyridin-2-yl)piperazine-1-carboxamide] |
| 50 to 1000 | COc1cccc(NC(=O)N2CCN(c3nsnc3OCc3ccnc(N)n3)CC2)c1 [Example 259, 4-(4-{[(2-aminopyrimidin-4-yl)methyl]oxy}-1,2,5-thiadiazol-3-yl)-N-[3-(methyloxy)phenyl]piperazine-1-carboxamide] |
| 1000 to 10000 | CC(=O)c1cccc(NC(=O)N2CCN(c3nsnc3OCc3ccnc(N)n3)CC2)c1 [Example 267, N-(3-acetylphenyl)-4-(4-{[(2-aminopyrimidin-4-yl)methyl]oxy}-1,2,5-thiadiazol-3-yl)piperazine-1-carboxamide] |
| < 50 | CCc1cccc(NC(=O)N2CCN(c3ncc(Br)cc3OCc3ccnc(N)n3)CC2)c1 [Example 190, 4-(3-{[(2-aminopyrimidin-4-yl)methyl]oxy}-5-bromopyridin-2-yl)-N-(3-ethylphenyl)piperazine-1-carboxamide] |
| < 50 | Nc1nccc(COc2ccc(Cl)nc2N2CCN(C(=O)Nc3cc(C(F)(F)F)cc(C(F)(F)F)c3)CC2)n1 [Example 244, 4-(3-{[(2-aminopyrimidin-4-yl)methyl]oxy}-6-chloropyridin-2-yl)-N-[3,5-bis(trifluoromethyl)phenyl]piperazine-1-carboxamide] |
| ≥ 10000 | Nc1nccc(COc2nsnc2N2CCN(C(=O)Nc3ccccc3)CC2)n1 [Example 230, 4-(4-{[(2-aminopyrimidin-4-yl)methyl]oxy}-1,2,5-thiadiazol-3-yl)-N-phenylpiperazine-1-carboxamide] |
| < 50 | Nc1nccc(COc2cccnc2N2CCN(C(=O)Nc3cccc(C4CC4)c3)CC2)n1 [Example 210, 4-(3-{[(2-aminopyrimidin-4-yl)methyl]oxy}pyridin-2-yl)-N-(3-cyclopropylphenyl)piperazine-1-carboxamide] |
| < 50 | CCc1cc(NC(=O)N2CCN(c3ncccc3OCc3ccnc(N)n3)CC2)ccc1F [Example 176, 4-(3-{[(2-aminopyrimidin-4-yl)methyl]oxy}pyridin-2-yl)-N-(3-ethyl-4-fluorophenyl)piperazine-1-carboxamide] |
| 1000 to 10000 | COc1ccc(OC)c(NC(=O)N2CCN(c3nsnc3OCc3ccnc(N)n3)CC2)c1 [Example 254, 4-(4-{[(2-aminopyrimidin-4-yl)methyl]oxy}-1,2,5-thiadiazol-3-yl)-N-[2,5-bis(methyloxy)phenyl]piperazine-1-carboxamide] |
| 50 to 1000 | Nc1nccc(COc2cccnc2N2CCN(C(=O)Nc3cccc(C(F)(F)F)c3F)CC2)n1 [Example 195, 4-(3-{[(2-aminopyrimidin-4-yl)methyl]oxy}pyridin-2-yl)-N-[2-fluoro-3-(trifluoromethyl)phenyl]piperazine-1-carboxamide] |
| 1000 to 10000 | Nc1nccc(COc2cccnc2N2CCN(C(=O)Nc3ccccc3F)CC2)n1 [Example 188, 4-(3-{[(2-aminopyrimidin-4-yl)methyl]oxy}pyridin-2-yl)-N-(2-fluorophenyl)piperazine-1-carboxamide] |
| 1000 to 10000 | Nc1nccc(COc2cccnc2N2CCN(C(=O)Nc3ccccc3)CC2)n1 [Example 178, 4-(3-{[(2-aminopyrimidin-4-yl)methyl]oxy}pyridin-2-yl)-N-phenylpiperazine-1-carboxamide] |
| < 50 | Nc1nccc(COc2cccnc2N2CCN(C(=O)Nc3cc(C(F)(F)F)cc(C(F)(F)F)c3)CC2)n1 [Example 142, 4-(3-{[(2-aminopyrimidin-4-yl)methyl]oxy}pyridin-2-yl)-N-[3,5-bis(trifluoromethyl)phenyl]piperazine-1-carboxamide] |
| < 50 | CN1CCN(CC(=O)Nc2cc(COc3cccnc3N3CCN(C(=O)Nc4cc(Cl)cc(C(F)(F)F)c4)CC3)ccn2)CC1 [Example 233, N-[3-chloro-5-(trifluoromethyl)phenyl]-4-(3-{[(2-{[(4-methylpiperazin-1-yl)acetyl]amino}pyridin-4-yl)methyl]oxy}pyridin-2-yl)piperazine-1-carboxamide] |
| < 50 | CCc1cc(Br)cc(NC(=O)N2CCN(c3ncccc3OCc3ccnc(N)n3)CC2)c1 [Example 181, 4-(3-{[(2-aminopyrimidin-4-yl)methyl]oxy}pyridin-2-yl)-N-(3-bromo-5-ethylphenyl)piperazine-1-carboxamide] |
| 50 to 1000 | CCN(CC)CC(=O)Nc1cc(COc2nsnc2N2CCN(C(=O)Nc3cc(C(F)(F)F)cc(C(F)(F)F)c3)CC2)ccn1 [Example 156, N-[3,5-bis(trifluoromethyl)phenyl]-4-{4-[({2-[(N,N-diethylglycyl)amino]pyridin-4-yl}methyl)oxy]-1,2,5-thiadiazol-3-yl}piperazine-1-carboxamide] |
| < 50 | CC(C)c1cccc(NC(=O)N2CCN(c3nccnc3OCc3ccnc(N)n3)CC2)c1 [Example 251, 4-(3-{[(2-aminopyrimidin-4-yl)methyl]oxy}pyrazin-2-yl)-N-[3-(1-methylethyl)phenyl]piperazine-1-carboxamide] |

From patent US8013156B2 (Exelixis, Inc., priority 2003, dated 2011)
